In patent publication US20080096894A1, “Anti-Bacterial Compounds” (ASTON UNIVERSITY, priority 2005, published 2008):

How the values were obtained:
Assay in all cases: MIC, doubling dilution in 96-well microtitre plate
Type in all cases: cell-based
Micrococcus roseus = system: Micrococcus roseus
Description: (§1) The compound was tested as follows. […] The wells were inoculated with organism ([…] of medium containing 10^6 cfu/mL) and the plates were incubated at 37° C. overnight. Where growth of organism occurred this was observed as a small button when viewed from underneath the plate. The MIC was determined as the lowest concentration inhibiting growth.

Moraxella catarrhalis = system: Moraxella catarrhalis
Description: as §1

Micrococcus luteus = system: Micrococcus luteus
Description: as §1

Row | MIC (Micrococcus luteus) | SMILES | MIC (Micrococcus roseus) | MIC (Moraxella catarrhalis)
1 | – | NC(=NN=Cc1ccccc1Sc1ccc(Cl)cc1)c1cc[n+]([O-])cc1 [Compound 4PYOeh] | 32 to 64 µg/mL | 64 to 128 µg/mL
2 | 8 to 16 µg/mL | CC(C)(C)c1ccc(O)c(C=NN=C(N)c2cc[n+]([O-])cc2)c1 [Compound 4PYOfe] | – | 8 to 16 µg/mL
